{
  "source": "paper PMC6968511",
  "about": "(Journal of Enzyme Inhibition and Medicinal Chemistry, 2019)",
  "key": {"[1]": {"test_system": "H9C2 (normal, rat myocytes)", "test": "MTT cytotoxicity assay", "assay_type": "cell-based", "settings": "tested up to 100 μM (data not shown)"}, "Solubility in water": {"test": "Solubility in water", "assay_type": "physicochemical"}, "[2]": {"test_system": "HepG2 (human liver carcinoma)", "test": "MTT cytotoxicity assay", "assay_type": "cell-based", "settings": "tested up to 100 μM (data not shown)"}, "MTT cytotoxicity assay": {"test": "MTT cytotoxicity assay", "assay_type": "cell-based, human", "settings": "human, HCEC (human corneal epithelial) cells"}, "[3]": {"test_system": "HCEC (human corneal epithelial cell)", "test": "MTT cytotoxicity assay", "assay_type": "cell-based", "settings": "MTT, tested up to 100 μM (data not shown)"}, "[4]": {"test_system": "HT-29 (human colorectral cancer)", "test": "MTT cytotoxicity assay", "assay_type": "cell-based", "settings": "tested up to 100 μM (data not shown)"}, "hypertensive rabbits": {"test_system": "hypertensive rabbits", "test": "Hypertensive rabbit IOP lowering study", "assay_type": "in vivo", "settings": "topical"}, "[5]": {"settings": "one drop (50 μL) of 1% solution (BRZ 1% suspension)"}},
  "data": [
    {"smiles": "CC(=O)Nc1nnc(S(N)(=O)=O)s1", "note": "[AAZ, acetazolamide]", "values": [
      {"measurement": "toxicity to H9C2 cells", "setting": "[1]", "result": "did not display any appreciable toxicity"},
      {"measurement": "Solubility", "setting": "Solubility in water", "result": 0.21, "unit": "%"},
      {"measurement": "toxicity to HepG2 cells", "setting": "[2]", "result": "did not display any appreciable toxicity"},
      {"measurement": "viability at 96 h, 1 %", "setting": "MTT cytotoxicity assay", "result": 80, "unit": "%"},
      {"measurement": "viability at 96 h, 2 %", "setting": "MTT cytotoxicity assay", "result": 10, "unit": "%"},
      {"measurement": "toxicity to HCEC cells", "setting": "[3]", "result": "did not display any appreciable toxicity"},
      {"measurement": "toxicity to HT-29 cells", "setting": "[4]", "result": "did not display any appreciable toxicity"}
    ]},
    {"smiles": "CCN[C@H]1CN(CCCOC)S(=O)(=O)c2sc(S(N)(=O)=O)cc21", "note": "[BRZ, brinzolamide]", "values": [
      {"measurement": "return to basal IOP values", "setting": "hypertensive rabbits; 1% suspension", "result": 3, "unit": "h"},
      {"measurement": "maximal IOP lowering", "setting": "hypertensive rabbits; [5]", "result": "around 5 mm Hg"},
      {"measurement": "time of maximal IOP lowering effect post-administration", "setting": "hypertensive rabbits; [5]", "result": 1, "unit": "h"},
      {"measurement": "toxicity to H9C2 cells", "setting": "[1]", "result": "did not display any appreciable toxicity"},
      {"measurement": "Solubility", "setting": "Solubility in water", "result": 0.05, "unit": "%"},
      {"measurement": "toxicity to HepG2 cells", "setting": "[2]", "result": "did not display any appreciable toxicity"},
      {"measurement": "viability at 96 h, 1 %", "setting": "MTT cytotoxicity assay", "result": 40, "unit": "%"},
      {"measurement": "toxicity to HCEC cells", "setting": "[3]", "result": "did not display any appreciable toxicity"},
      {"measurement": "toxicity to HT-29 cells", "setting": "[4]", "result": "did not display any appreciable toxicity"}
    ]},
    {"smiles": "CCN[C@H]1C[C@H](C)S(=O)(=O)c2sc(S(N)(=O)=O)cc21", "note": "[DZA, dorzolamide]", "values": [
      {"measurement": "Solubility", "setting": "Solubility in water", "result": 0.67, "unit": "%"}
    ]}
  ]
}
